Assay results published in patent US20060199230A1, “Use of prostate specific antigen to predict drug response” (Hybritech Incorporated, priority 2005, published 2006).

Experiments:
[1] = test system: total PSA, proPSA, free PSA and BPSA in serum; experiment: Serum PSA forms at Time 0 and 1 month of dutasteride treatment; drug response = prostate volume decrease of 10% or more at 12 months (Example I); type: in vivo, men
Description: (§1) A cohort of serum samples from men greater or equal to 50 years of age with BPH were used. The PSA range was from 1.5 to 10 ng/ml (median 3.2 ng/ml). International Prostate Symptom Score (IPSS) upon entry were 11-32 (moderate to severe, median 18.5). The median Qmax (urine flow rate in cc per second) was 9.3. Men received TRUS for prostate volume at time 0 and then received dutasteride in a blinded fashion at a rate of 0.5 mg per day. Serum was obtained at 0, 1, 3, and 12 months and was assayed for total PSA, proPSA, free PSA and BPSA. IPSS symptom scores were determined at 0, 1 and 12 months. Additional TRUS for prostate volume was performed at 12 months after the start of drug treatment.
Serum from placebo and drug-treated men were tested for levels of PSA forms at Time 0 (pretreatment baseline), and at 1, 3 and 12 months after the start of placebo or drug treatment. […] In this plot, the decrease in prostate volume by 10% or more was used as the definition of drug response.

[2] = test system: total PSA, proPSA, free PSA and BPSA in serum; experiment: Serum PSA forms at Time 0 and 1 month of dutasteride treatment; drug response = IPSS decrease of 2 or more at 12 months (Example II); type: in vivo, men
Description: as §1
The concentrations of total PSA, free PSA, proPSA, and BPSA were examined at Time 0 (pretreatment baseline) and at 1 month after drug treatment. Drug response was defined as men who had improvement (decrease) in their IPSS of equal to 2 or greater after 12 months of treatment. […] The increases in the ratio of BPSA to total PSA and the ratio of BPSA to free PSA were also highly significant.
Another method of determining a cutoff for clinical utility is to calculate the Odds Ratio of a response to drug treatment at 12 months, based on the percentage change in a measured parameter at 1 month. In this case, the odds of responding to the drug (drop of 2 or more in the IPSS at 12 months) increases with increasing ratio of BPSA to proPSA at 1 month. […] With a >250% increase of BPSA to proPSA ratio over baseline at 1 month, there is at least a 2-fold increase in the odds of having a drug response at 12 months. An Odds Ratio of at least 2 is the preferred embodiment of the invention. Using Odds Ratio as a means to set a cutoff for the increase in the ratio of BPSA to proPSA would have a preferred cutoff of 250%.

[3] = about 1 month after drug administration, men with 10% or greater decrease in prostate volume at 12 months
[4] = median after 1 month of drug, 0.5 mg per day, men with decrease of 10% or more in prostate volume at 12 months
[5] = median, pretreatment baseline, drug-treated men with decrease of 10% or more in prostate volume at 12 months
[6] = Table 3, samples with a decrease of 2 or more in IPSS
[7] = about 1 month, IPSS reduction of 2 or greater at 12 months as drug response
[8] = median after 1 month of drug, 0.5 mg per day, men with improvement in IPSS of 2 or more at 12 months
[9] = median, pretreatment baseline, drug-treated men with improvement in IPSS of 2 or more at 12 months

## C[C@]12C=CC(=O)N[C@@H]1CC[C@@H]1[C@@H]2CC[C@]2(C)[C@@H](C(=O)Nc3cc(C(F)(F)F)ccc3C(F)(F)F)CC[C@@H]12 [dutasteride]
[1]; 3 months of drug treatment
  total PSA and free PSA levels at 3 months: the levels decrease at 3 months
[1]; [3]
  decrease in proPSA: 48%
  increase in BPSA: 86%
  increase of the ratio of BPSA to PSA: 78%
  increase of the ratio of BPSA to free PSA: 52%
  increase of the ratio of BPSA to proPSA over the baseline ratio: 450%
[1]; drug responders: decrease in prostate volume by 10% or more after 12 months
  change in total PSA, free PSA, or the ratio of free to total PSA at 1 month: no significant change
[1]; drug-treated men with less than 10% decrease in prostate volume at 12 months
  change in BPSA at 1 month in drug non-responders: no significant increase
[1]; [4]
  BPSA, 1 Month: 0.186 ng/mL
  BPSA/free PSA, 1 Month: 0.230
  BPSA/proPSA, 1 Month: 2.26
  BPSA/total PSA, 1 Month: 0.050
  Free PSA, 1 Month: 0.76 ng/mL
  Free PSA/total PSA, 1 Month: 0.214
  Total PSA, 1 Month: 3.14 ng/mL
  proPSA, 1 Month: 0.097 ng/mL
[1]; [5]
  BPSA, Time 0: 0.100 ng/mL
  BPSA/free PSA, Time 0: 0.151
  BPSA/proPSA, Time 0: 0.499
  BPSA/total PSA, Time 0: 0.028
  Free PSA, Time 0: 0.70 ng/mL
  Free PSA/total PSA, Time 0: 0.204
  Total PSA, Time 0: 3.02 ng/mL
  proPSA, Time 0: 0.204 ng/mL
[1]; three months after the start of drug administration, FIG. 1
  BPSA level at three months vs baseline: decline below the baseline level
[2]; [6]
  BPSA, median value at 1 month, Drug: 0.091, 0.151 ng/ml
  BPSA/free PSA, median value at 1 month, Drug: 0.228
  BPSA/total PSA, median value at 1 month, Drug: 0.032, 0.046
  Free PSA, median value at 1 month, Drug: 0.62, 0.67 ng/ml
  Free PSA/total PSA, median value at 1 month, Drug: 0.22, 0.21
  Total PSA, median value at 1 month, Drug: 3.00, 3.08 ng/ml
[2]; [7]
  decrease in proPSA: 41%
  increase in BPSA to proPSA ratio over baseline: 230%
  increase in BPSA/free PSA ratio: 44%
  increase in BPSA/total PSA ratio: 59%
[2]; about 1 month, IPSS reduction of 2 or greater at 12 months as drug response, not significant
  increase in BPSA: 25%
[2]; [8]
  BPSA, 1 Month: 0.151 ng/mL
  BPSA/free PSA, 1 Month: 0.228
  BPSA/proPSA, 1 Month: 1.32
  BPSA/total PSA, 1 Month: 0.046
  Free PSA, 1 Month: 0.67 ng/mL
  Free PSA/total PSA, 1 Month: 0.21
  Total PSA, 1 Month: 3.14 ng/mL
  proPSA, 1 Month: 0.103 ng/mL
[2]; [9]
  BPSA, Time 0: 0.120 ng/mL
  BPSA/free PSA, Time 0: 0.158
  BPSA/proPSA, Time 0: 0.584
  BPSA/total PSA, Time 0: 0.029
  Free PSA, Time 0: 0.77 ng/mL
  Free PSA/total PSA, Time 0: 0.19
  Total PSA, Time 0: 3.68 ng/mL
  proPSA, Time 0: 0.253 ng/mL
[2]; men with IPSS improvement of less than 2
  difference in any PSA-related parameter, Time 0 vs 1 month, drug non-responders: None of the placebo samples, or the men with IPSS improvement of less than 2 (drug non-responders), showed statistically a significant difference
